In PubChem BioAssay (NCI):
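Method: 48-hour compound exposure of cells in 96-well plates, five concentrations, linear interpolation of endpoints. At the GI50, growth is halved. TGI is the concentration that stops growth completely.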

Assays:
Experiment in all cases: NCI anticancer screen, dose series, 48 h
[1] = test system: BT-549 breast
[2] = test system: KM12 colon
[3] = test system: NCI-H226 lung
[4] = test system: U251 CNS
[5] = test system: 786-0 renal
[6] = test system: COLO 205 colon
[7] = test system: MALME-3M melanoma
[8] = test system: UACC-62 melanoma
[9] = test system: SW-620 colon
[10] = test system: TK-10 renal

| SMILES | TGI [1] [µM] | TGI [2] [µM] | TGI [3] [µM] | TGI [4] [µM] | TGI [5] [µM] | TGI [6] [µM] | TGI [7] [µM] | TGI [8] [µM] | TGI [9] [µM] | TGI [10] [µM] | GI50 [1] [µM] | GI50 [2] [µM] | GI50 [3] [µM] | GI50 [4] [µM] | GI50 [5] [µM] | GI50 [6] [µM] | GI50 [7] [µM] | GI50 [8] [µM] | GI50 [9] [µM] | GI50 [10] [µM] |
| --- | --- | --- | --- | --- | --- | --- | --- | --- | --- | --- | --- | --- | --- | --- | --- | --- | --- | --- | --- | --- |
| COC(=O)c1n[nH]c(C)c1N=NN(C)CCC#N | 28.6 | 51.4 | 35.8 | 41.5 | 48.4 | 26.9 | 34.6 | 35.2 | 34 | 62.4 |  |  |  |  |  |  |  |  |  |  |
| CC1=CC(=O)C2=C(C)CCC3C(C)C(=O)OC3C12 (stereo not drawn) | > 100 | > 100 | > 100 | > 100 | > 100 | > 100 | > 100 | > 100 | > 100 | > 100 |  |  |  |  |  |  |  |  |  |  |
| CCCCCCCCCCCCOC1C(CNC(=O)C2OC3OC(C)(C)OC3C2NC(=O)Nc2ccc(CC(=O)OC)cc2)OC2OC(C)(C)OC21 (stereo not drawn) | > 100 | > 100 | > 100 | > 100 | > 100 | > 100 | > 100 | > 100 | > 100 | > 100 | > 100 | > 100 | > 100 | 18.3 | > 100 | > 72.5 | > 78.1 | > 100 | > 100 | > 100 |
| Fc1cccc(COc2ccc(Nc3ncnc4sc(-c5cccs5)cc34)cc2Cl)c1 | 15.6 | > 25 | 15.2 | 15.9 | > 18.7 | 10.5 | 10.1 | 5.71 | > 25 | 10.8 | 6.25 | 4.07 | 4.58 | 5.75 | 8.34 | 1.42 | 3.52 | 1.59 | > 13.3 | 4.76 |
| COc1ccc(C2CC(c3cccc(Nc4ccnc5cc(Cl)ccc45)c3)=NN2C=O)cc1 (stereo not drawn) | 9.86 | > 36.4 | > 100 | 3.98 | 30.8 | 2.95 | > 100 | 54.8 | > 100 | 7.86 | 0.486 | 0.4 | 39.3 | 0.435 | 0.665 | 0.484 |  | 0.532 | 0.333 | 0.882 |
| O=c1c2c(=NCCN3CCCC3)cc3c(=O)n(CCCN4CCOCC4)c(=O)c4c(-c5ccc(CN6CCCC6)cc5)cc(c(O)n1CCCN1CCOCC1)c2c4-3 | 0.5 | 0.841 | 0.49 | 1.36 | 0.383 | 0.327 | 0.388 | 0.239 | 0.342 | 0.84 | 0.116 | 0.0661 | 0.0523 | 0.0412 | 0.0416 | 0.0641 | 0.105 | 0.08 | 0.0186 | 0.0329 |
| COc1ccc(C2=N[C@@H](Cc3ccccc3)C(=O)Nc3ccsc32)cc1 | 28.5 | 20.9 | 42 | 20.5 | 36.6 | 5.03 | 25.9 | 20.2 | 27.9 | 56.6 | 10.6 | 5.62 | 11.2 | 4.51 | 10.7 | 2.49 | 10.4 | 4.47 | 4.38 | 13 |
| CCOC(=O)c1cc(C(=O)c2cc(OC)c(OC)c(OC)c2)n2ncccc12 | > 100 | > 100 | > 100 | 37.1 | > 100 | 1.33 | > 100 | > 100 | > 100 | > 100 | 0.761 | 0.342 | 28.2 | 0.444 | 2.17 | 0.23 |  | 0.196 | 0.185 | 26.4 |
| COc1cc(C2Cc3ncccc3-c3[nH]c(=O)c4cccnc4c32)cc(OC)c1OC (stereo not drawn) | 66.6 | > 100 | > 100 | 38.2 | > 100 | 1.27 | > 100 | > 100 | > 100 | > 100 | 0.633 | 0.373 | > 74.7 | 0.524 | 1.41 | 0.332 | > 100 | 0.463 | 0.412 | > 100 |
| O=C(Cc1ccc(/C=C/C(=O)c2ncc[nH]2)cc1)Nc1ccc(F)cc1 | 11.3 | 7.91 | > 33.3 | 4.5 | 5.81 | 10.8 | 22.1 | 22.6 | 6.78 | 18.4 | 2.73 | 2.1 | 9.85 | 1.2 | 1.37 | 4.54 | 7.86 | 5.92 | 1.43 | 7.89 |
| C/C(=N\NC(=S)N1CCCCC1)c1ccccn1 | 5.27 | 4.72 | 2.95 | 10.6 | 2.39 | 0.041 | 3.05 | 3.93 | 7.18 | 4.14 | 0.745 | 0.0634 | 0.32 | < 0.0105 | 0.0517 | < 0.01 | 0.145 | 0.106 | 0.0142 | 0.472 |
| c1cc(NNc2cccc(-c3nn[nH]n3)c2)cc(-c2nn[nH]n2)c1 | > 100 | > 100 | > 100 | > 100 | > 100 | > 100 | > 100 | > 100 | > 100 | > 100 |  |  |  |  |  |  |  |  |  |  |
| Cc1cc2nc3c4cc(O)ccc4n(CCN(C)C)c3nc2cc1C | 6.27 | 7.8 | 5.45 | 4.46 | 2.42 | 3.99 | 2.41 | 2.6 | 1.8 | 6.13 | 2.03 | 1.38 | 1.18 | 0.747 | 0.929 | 0.698 | 1.14 | 0.729 | 0.404 | 2.21 |
